Experiments:
Assay type in all cases: in vivo
[1] = tested on: crabgrass, large (large crabgrass, Digitaria sanguinalis); assay: Test A pre-/postemergence: crabgrass, large; conditions: for Crabgrass, Large plant response rating: Postemergence; for Plant response rating, Crabgrass, Large: Preemergence
Method in brief: (§1)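 Rating scale 0–100 (100 = complete control), visual, ~10 days after application in the greenhouse. Applications: preemergence directed soil spray; postemergence at 1–2 leaves.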

[2] = tested on: foxtail, giant (giant foxtail, Setaria faberii); assay: Test A pre-/postemergence: foxtail, giant; conditions: for Foxtail, Giant plant response rating: Postemergence; for Plant response rating, Foxtail, Giant: Preemergence
Method in brief: as §1

[3] = tested on: pigweed (Amaranthus retroflexus); assay: Test A pre-/postemergence: pigweed
Method in brief: as §1

[4] = tested on: velvetleaf (Abutilon theophrasti); assay: Test A pre-/postemergence: velvetleaf
Method in brief: as §1

[5] = tested on: wheat (Triticum aestivum); assay: Test A pre-/postemergence: wheat
Method in brief: as §1

[6] = tested on: barnyardgrass (Echinochloa crus-galli); assay: Test B flooded paddy: barnyardgrass; conditions: Flood; 250 g ai/ha; applied to paddy water at 2-leaf stage; visually evaluated after 13 to 15 days
Method in brief: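 Response scored visually, 0–100 relative to controls, 13–15 days after the compound was applied into paddy water; plants were at the 2-leaf stage in pots kept flooded to 3 cm.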

[7] = tested on: blackgrass (Alopecurus myosuroides); assay: Test C pre-/postemergence: blackgrass
Method in brief: (§2)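 Preemergence on seeds in loam/sand, postemergence on 2–18 cm (1–4-leaf) plants in peat-based medium; compounds in non-phytotoxic solvent with surfactant. After 13–15 days in greenhouse, visual rating versus controls, 0 (no effect) to 100 (complete control).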

[8] = tested on: ragweed (common ragweed, Ambrosia elation); assay: Test C pre-/postemergence: ragweed
Method in brief: as §2

[9] = tested on: chickweed (common chickweed, Stellaria media); assay: Test C postemergence: chickweed
Method in brief: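 Greenhouse pot test; foliar postemergence treatment at 1- to 4-leaf stage. Rated visually at 13 to 15 days on a 0–100 control scale relative to untreated plants.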

[10] = tested on: morningglory (Ipomoea coccinea); assay: Test C pre-/postemergence: morningglory
Method in brief: as §2

[11] = 125 g ai/ha, 0 to 100 scale, 0 is no effect, 100 is complete control
[12] = 500 g ai/ha, visual rating on 0 to 100 scale (0 no effect, 100 complete control), approximately ten days
[13] = 125 g ai/ha, 0 to 100 scale (0 no effect, 100 complete control)
[14] = 500 g ai/ha, 0 to 100 scale, 0 is no effect, 100 is complete control
[15] = Postemergence, 125 g ai/ha, 0 to 100 scale, 0 is no effect, 100 is complete control
[16] = Postemergence, 500 g ai/ha, visual rating on 0 to 100 scale (0 no effect, 100 complete control), approximately ten days
[17] = Preemergence, 125 g ai/ha, 0 to 100 scale (0 no effect, 100 complete control)
[18] = Preemergence, 500 g ai/ha, 0 to 100 scale, 0 is no effect, 100 is complete control
[19] = Postemergence, 31 g ai/ha, scale 0 to 100 (0 no effect, 100 complete control)
[20] = Postemergence, 62 g ai/ha, scale 0 to 100 (0 no effect, 100 complete control)
[21] = Postemergence, 125 g ai/ha, scale 0 to 100, 0 no effect, 100 complete control
[22] = Postemergence, 250 g ai/ha, scale 0 to 100
[23] = 62 g ai/ha, scale 0 to 100 (0 no effect, 100 complete control)
[24] = 125 g ai/ha, scale 0 to 100, 0 no effect, 100 complete control
[25] = 125 g ai/ha, 0 to 100 scale where 0 is no effect and 100 is complete control
[26] = 500 g ai/ha, 0 to 100 scale (0 no effect, 100 complete control)
[27] = Preemergence, 125 g ai/ha, 0 to 100 scale where 0 is no effect and 100 is complete control
[28] = Preemergence, 500 g ai/ha, 0 to 100 scale (0 no effect, 100 complete control)
[29] = Preemergence, 31 g ai/ha, scale of 0 to 100, 0 is no effect, 100 is complete control
[30] = Preemergence, 62 g ai/ha, scale of 0 to 100, 0 is no effect, 100 is complete control
[31] = Preemergence, 125 g ai/ha, scale 0 to 100, 0 no effect, 100 complete control
[32] = Preemergence, 250 g ai/ha, scale 0 to 100, 0 no effect, 100 complete control

FC(F)(F)c1ccc(-n2nc(Cl)c(Cc3ccnc(C(F)(F)F)c3)n2)cc1 [Compound 28]
Crabgrass, Large plant response rating [1, 11]: 70 | Crabgrass, Large plant response rating [1, 12]: 90 | Plant response rating, Crabgrass, Large [1, 13]: 30 | Plant response rating, Crabgrass, Large [1, 14]: 90 | Foxtail, Giant plant response rating [2, 11]: 90 | Foxtail, Giant plant response rating [2, 12]: 90 | Plant response rating, Foxtail, Giant [2, 13]: 100 | Plant response rating, Foxtail, Giant [2, 14]: 100 | Pigweed plant response rating [3, 15]: 100 | Pigweed plant response rating [3, 16]: 100 | Plant response rating, Pigweed [3, 17]: 100 | Plant response rating, Pigweed [3, 18]: 100 | Velvetleaf plant response rating [4, 15]: 80 | Velvetleaf plant response rating [4, 16]: 100 | Plant response rating, Velvetleaf [4, 17]: 20 | Plant response rating, Velvetleaf [4, 18]: 80 | Wheat plant response rating [5, 15]: 40 | Wheat plant response rating [5, 16]: 50 | Plant response rating, Wheat [5, 17]: 0 | Plant response rating, Wheat [5, 18]: 20 | Plant response rating, Barnyardgrass (0 to 100 scale, 0 is no effect, 100 is complete control) [6]: 90 | Plant response rating, Blackgrass [7, 19]: 10 | Plant response rating, Blackgrass [7, 20]: 10 | Plant response rating, Blackgrass [7, 21]: 55 | Plant response rating, Blackgrass [7, 22]: 60 | Plant response rating, Ragweed [8, 19]: 35 | Plant response rating, Ragweed [8, 20]: 60 | Plant response rating, Ragweed [8, 22]: 85 | Plant response rating, Chickweed ([9]; 31 g ai/ha, scale 0 to 100 (0 no effect, 100 complete control)): 30 | Plant response rating, Chickweed [9, 23]: 55 | Plant response rating, Chickweed [9, 24]: 95 | Plant response rating, Chickweed ([9]; 250 g ai/ha, scale 0 to 100): 100

COc1nn(-c2ccc(C(F)(F)F)cc2)nc1Cc1ccnc(C(F)F)c1 [Compound 138]
Crabgrass, Large plant response rating [1, 11]: 90 | Crabgrass, Large plant response rating [1, 12]: 90 | Plant response rating, Crabgrass, Large [1, 25]: 90 | Plant response rating, Crabgrass, Large [1, 26]: 90 | Foxtail, Giant plant response rating [2, 11]: 90 | Foxtail, Giant plant response rating [2, 12]: 90 | Plant response rating, Foxtail, Giant [2, 25]: 100 | Plant response rating, Foxtail, Giant [2, 26]: 100 | Plant response rating, Pigweed [3, 15]: 100 | Pigweed plant response rating [3, 16]: 100 | Plant response rating, Pigweed [3, 27]: 100 | Plant response rating, Pigweed [3, 28]: 100 | Plant response rating, Velvetleaf [4, 15]: 100 | Velvetleaf plant response rating [4, 16]: 100 | Plant response rating, Velvetleaf [4, 27]: 70 | Plant response rating, Velvetleaf [4, 28]: 100 | Plant response rating, Wheat [5, 15]: 50 | Wheat plant response rating [5, 16]: 60 | Plant response rating, Wheat [5, 27]: 30 | Plant response rating, Wheat [5, 28]: 60 | Plant response rating, Barnyardgrass (0 to 100 scale, 0 is no effect, 100 is complete control) [6]: 80 | Plant response rating, Blackgrass [7, 19]: 20 | Plant response rating, Blackgrass [7, 20]: 40 | Plant response rating, Blackgrass [7, 21]: 40 | Plant response rating, Blackgrass [7, 22]: 45 | Plant response rating, Blackgrass [7, 29]: 90 | Plant response rating, Blackgrass [7, 30]: 95 | Plant response rating, Blackgrass [7, 31]: 95 | Plant response rating, Blackgrass [7, 32]: 95 | Plant response rating, Morningglory [10, 19]: 90 | Plant response rating, Morningglory [10, 20]: 90 | Plant response rating, Morningglory [10, 21]: 98 | Plant response rating, Morningglory [10, 22]: 98 | Plant response rating, Morningglory [10, 29]: 15 | Plant response rating, Morningglory [10, 30]: 55 | Plant response rating, Morningglory [10, 31]: 65 | Plant response rating, Morningglory [10, 32]: 98 | Plant response rating, Ragweed [8, 19]: 75 | Plant response rating, Ragweed [8, 20]: 80 | Plant response rating, Ragweed [8, 21]: 85 | Plant response rating, Ragweed [8, 22]: 85 | Plant response rating, Ragweed [8, 29]: 40 | Plant response rating, Ragweed [8, 30]: 45 | Plant response rating, Ragweed [8, 31]: 50 | Plant response rating, Ragweed [8, 32]: 50 | Plant response rating, Chickweed [9, 23]: 80 | Plant response rating, Chickweed [9, 24]: 95 | Plant response rating, Chickweed ([9]; 250 g ai/ha, scale 0 to 100): 98
